Assay results from PubChem BioAssay AID1259407 (Chemical Carcinogenesis Research Information System (CCRIS), 2018).
Active and inactive are the calls of the source. No rule for the calls is given here.

System: CCRIS mutagenicity, Ames/micronucleus/aberration tests
Assay: CCRIS mutagenicity studies

SMILES: O=C(O)CN(CC(=O)O)CC(=O)O
- mutagenic call (Test System: AMES SALMONELLA TYPHIMURIUM, Strain/Indicator: TA1535, Metabolic Activation: NONE, Method: STANDARD PLATE): inactive; negative
- mutagenic call (Test System: AMES SALMONELLA TYPHIMURIUM, Strain/Indicator: TA1535, Metabolic Activation: NONE, Method: SUSPENSION/PLATE): inactive; negative
- mutagenic call (Test System: AMES SALMONELLA TYPHIMURIUM, Strain/Indicator: TA1535, Metabolic Activation: RAT, LIVER, S-9, AROCLOR 1254 (10 OR 30%), Method: PREINCUBATION): inactive; negative
- mutagenic call (Test System: AMES SALMONELLA TYPHIMURIUM, Strain/Indicator: TA1535, Metabolic Activation: RAT, LIVER, S-9, AROCLOR 1254, Method: STANDARD PLATE): inactive; negative
- mutagenic call (Test System: AMES SALMONELLA TYPHIMURIUM, Strain/Indicator: TA1535, Metabolic Activation: RAT, LIVER, S-9, Method: STANDARD PLATE): inactive; negative
- mutagenic call (Test System: AMES SALMONELLA TYPHIMURIUM, Strain/Indicator: TA1537, Metabolic Activation: HAMSTER, LIVER, S-9, AROCLOR 1254 (10 OR 30%), Method: PREINCUBATION): inactive; negative
- mutagenic call (Test System: AMES SALMONELLA TYPHIMURIUM, Strain/Indicator: TA1537, Metabolic Activation: HAMSTER, LIVER, S-9, AROCLOR 1254, Method: STANDARD PLATE): inactive; negative
- mutagenic call (Test System: AMES SALMONELLA TYPHIMURIUM, Strain/Indicator: TA1537, Metabolic Activation: HAMSTER, LIVER, S-9, Method: STANDARD PLATE): inactive; negative
- mutagenic call (Test System: AMES SALMONELLA TYPHIMURIUM, Strain/Indicator: TA1537, Metabolic Activation: MOUSE, LIVER, S-9, AROCLOR 1254, Method: STANDARD PLATE): inactive; negative
- mutagenic call (Test System: AMES SALMONELLA TYPHIMURIUM, Strain/Indicator: TA1537, Metabolic Activation: MOUSE, LIVER, S-9, Method: STANDARD PLATE): inactive; negative
- mutagenic call (Test System: AMES SALMONELLA TYPHIMURIUM, Strain/Indicator: TA1537, Metabolic Activation: NONE, Method: PREINCUBATION): inactive; negative
- mutagenic call (Test System: AMES SALMONELLA TYPHIMURIUM, Strain/Indicator: TA1537, Metabolic Activation: NONE, Method: STANDARD PLATE): inactive; negative
- mutagenic call (Test System: AMES SALMONELLA TYPHIMURIUM, Strain/Indicator: TA1537, Metabolic Activation: NONE, Method: SUSPENSION/PLATE): inactive; negative
- mutagenic call (Test System: AMES SALMONELLA TYPHIMURIUM, Strain/Indicator: TA1537, Metabolic Activation: RAT, LIVER, S-9, AROCLOR 1254 (10 OR 30%), Method: PREINCUBATION): inactive; negative
- mutagenic call (Test System: AMES SALMONELLA TYPHIMURIUM, Strain/Indicator: TA1537, Metabolic Activation: RAT, LIVER, S-9, AROCLOR 1254, Method: STANDARD PLATE): inactive; negative
- mutagenic call (Test System: AMES SALMONELLA TYPHIMURIUM, Strain/Indicator: TA1537, Metabolic Activation: RAT, LIVER, S-9, Method: STANDARD PLATE): inactive; negative
- mutagenic call (Test System: AMES SALMONELLA TYPHIMURIUM, Strain/Indicator: TA1538, Metabolic Activation: HAMSTER, LIVER, S-9, AROCLOR 1254, Method: STANDARD PLATE): inactive; negative
- mutagenic call (Test System: AMES SALMONELLA TYPHIMURIUM, Strain/Indicator: TA1538, Metabolic Activation: HAMSTER, LIVER, S-9, Method: STANDARD PLATE): inactive; negative
- mutagenic call (Test System: AMES SALMONELLA TYPHIMURIUM, Strain/Indicator: TA1538, Metabolic Activation: MOUSE, LIVER, S-9, AROCLOR 1254, Method: STANDARD PLATE): inactive; negative
- mutagenic call (Test System: AMES SALMONELLA TYPHIMURIUM, Strain/Indicator: TA1538, Metabolic Activation: MOUSE, LIVER, S-9, Method: STANDARD PLATE): inactive; negative
- mutagenic call (Test System: AMES SALMONELLA TYPHIMURIUM, Strain/Indicator: TA1538, Metabolic Activation: NONE, Method: STANDARD PLATE): inactive; negative
- mutagenic call (Test System: AMES SALMONELLA TYPHIMURIUM, Strain/Indicator: TA1538, Metabolic Activation: RAT, LIVER, S-9, AROCLOR 1254, Method: STANDARD PLATE): inactive; negative
- mutagenic call (Test System: AMES SALMONELLA TYPHIMURIUM, Strain/Indicator: TA1538, Metabolic Activation: RAT, LIVER, S-9, Method: STANDARD PLATE): inactive; negative
- mutagenic call (Test System: Ames Salmonella typhimurium, Strain/Indicator: TA98, Metabolic Activation: None, Method: Plate incorporation): inactive; negative
- mutagenic call (Test System: Ames Salmonella typhimurium, Strain/Indicator: TA98, Metabolic Activation: Rat, Kidney, S9, Aroclor 1254 with NADP, Method: Preincubation): inactive; negative
- mutagenic call (Test System: Ames Salmonella typhimurium, Strain/Indicator: TA98, Metabolic Activation: Rat, Kidney, S9, Aroclor 1254 with arachidonic acid instead of NADP, Method: Preincubation): inactive; negative
- mutagenic call (Test System: Ames Salmonella typhimurium, Strain/Indicator: TA98, Metabolic Activation: Rat, Liver, S9, Aroclor 1254, Method: Preincubation): inactive; negative
- mutagenic call (Test System: Ames Salmonella typhimurium, Strain/Indicator: TA100, Metabolic Activation: None, Method: Plate incorporation): inactive; negative
- mutagenic call (Test System: Ames Salmonella typhimurium, Strain/Indicator: TA100, Metabolic Activation: Rat, Kidney, S9, Aroclor 1254 with NADP, Method: Preincubation): inactive; negative
- mutagenic call (Test System: Ames Salmonella typhimurium, Strain/Indicator: TA100, Metabolic Activation: Rat, Kidney, S9, Aroclor 1254 with arachidonic acid instead of NADP, Method: Preincubation): inactive; negative
- mutagenic call (Test System: Ames Salmonella typhimurium, Strain/Indicator: TA100, Metabolic Activation: Rat, Liver, S9, Aroclor 1254, Method: Preincubation): inactive; negative
- mutagenic call (Test System: Ames Salmonella typhimurium, Strain/Indicator: TA102, Metabolic Activation: None, Method: Plate incorporation): inactive; negative. significant decrease at three highest doses.
- mutagenic call (Test System: Ames Salmonella typhimurium, Strain/Indicator: TA102, Metabolic Activation: Rat, Kidney, S9, Aroclor 1254 with NADP, Method: Preincubation): inactive; negative
- mutagenic call (Test System: Ames Salmonella typhimurium, Strain/Indicator: TA102, Metabolic Activation: Rat, Kidney, S9, Aroclor 1254 with arachidonic acid instead of NADP, Method: Preincubation): inactive; negative
- mutagenic call (Test System: Ames Salmonella typhimurium, Strain/Indicator: TA102, Metabolic Activation: Rat, Liver, S9, Aroclor 1254, Method: Preincubation): inactive; negative
- mutagenic call (Test System: Ames Salmonella typhimurium, Strain/Indicator: TA1537, Metabolic Activation: None, Method: Plate incorporation): inactive; negative
- mutagenic call (Test System: Ames Salmonella typhimurium, Strain/Indicator: TA1537, Metabolic Activation: Rat, Kidney, S9, Aroclor 1254 with NADP, Method: Preincubation): inactive; negative
- mutagenic call (Test System: Ames Salmonella typhimurium, Strain/Indicator: TA1537, Metabolic Activation: Rat, Kidney, S9, Aroclor 1254 with arachidonic acid instead of NADP, Method: Preincubation): inactive; negative
- mutagenic call (Test System: Ames Salmonella typhimurium, Strain/Indicator: TA1537, Metabolic Activation: Rat, Liver, S9, Aroclor 1254, Method: Preincubation): inactive; negative
- mutagenic call (Test System: E. COLI, Strain/Indicator: WP2 UVRA, Metabolic Activation: HAMSTER, LIVER, S-9, AROCLOR 1254, Method: STANDARD PLATE): inactive; negative
- mutagenic call (Test System: E. COLI, Strain/Indicator: WP2 UVRA, Metabolic Activation: HAMSTER, LIVER, S-9, Method: STANDARD PLATE): inactive; negative
- mutagenic call (Test System: E. COLI, Strain/Indicator: WP2 UVRA, Metabolic Activation: MOUSE, LIVER, S-9, AROCLOR 1254, Method: STANDARD PLATE): inactive; negative
- mutagenic call (Test System: E. COLI, Strain/Indicator: WP2 UVRA, Metabolic Activation: MOUSE, LIVER, S-9, Method: STANDARD PLATE): inactive; negative
- mutagenic call (Test System: E. COLI, Strain/Indicator: WP2 UVRA, Metabolic Activation: NONE, Method: STANDARD PLATE): inactive; negative
- mutagenic call (Test System: E. COLI, Strain/Indicator: WP2 UVRA, Metabolic Activation: RAT, LIVER, S-9, AROCLOR 1254, Method: STANDARD PLATE): inactive; negative
- mutagenic call (Test System: E. COLI, Strain/Indicator: WP2 UVRA, Metabolic Activation: RAT, LIVER, S-9, Method: STANDARD PLATE): inactive; negative
- mutagenic call (Test System: MOUSE LYMPHOMA, Strain/Indicator: L5178Y (TK+/TK-), Metabolic Activation: NONE, Method: SUSPENSION/PLATE): inactive; negative
- mutagenic call (Test System: MOUSE LYMPHOMA, Strain/Indicator: L5178Y (TK+/TK-), Metabolic Activation: RAT, LIVER, S-9, AROCLOR 1254, Method: SUSPENSION/PLATE): inactive; negative
- mutagenic call (Test System: MOUSE LYMPHOMA, Strain/Indicator: L5178Y (TK+/TK-), Metabolic Activation: RAT, LIVER, S-9, Method: SUSPENSION/PLATE): inactive; negative
- mutagenic call (Test System: Mouse lymphoma, Strain/Indicator: L5178Y (tk+/tk-), Metabolic Activation: None, Method: Microwell): active; positive. small colonies only.
